Data taken from patent US20220202905A1, “COMPOSITION FOR PREVENTING OR TREATING NEUROTROPHIC KERATITIS WHICH CONTAINS PACAP PEPTIDE OR STABILIZED PACAP PEPTIDE” (SENJU PHARMACEUTICAL CO., LTD., priority 2019, published 2022).
Square brackets hold non-standard residues; d marks the D form. Peptide text beside a SMILES is read from it. * marks the point of attachment. Ala(1H-tetrazol-5-yl) = N[C@@H](Cc1nnn[nH]1)C(=O)O; Ms = CS(=O)(=O)*

Test: Peptide stability test, Tris buffer (pH 7.0), 60° C. storage, HPLC remaining rate
Format: physicochemical
Conditions: 100 μM in Tris buffer pH 7.0
Protocol: Peptides 1, 2 and 6 to 9 synthesized in Example 2 were weighed and dissolved in Tris buffer (pH 7.0) to prepare 1.0 mM peptide solutions. Each solution was filtered with a Chromatdisk (product of Merck Millipore, Millex-GV, 0.22 μm). The filtrate was diluted to 100 μM with Tris buffer (pH 7.0) and dispensed into a tube (Protein LoBind Tube by Eppendorf Co.). The prepared peptide solutions were incubated for 1 week or 2 weeks in a 60° C. thermostatic bath to obtain stored samples. A simultaneously prepared sample among the peptide solutions that was not stored was used as a standard sample (initial sample). The standard sample and the stored samples were stored at −30° C. until sample analysis. Each stored sample was measured under the following HPLC analysis conditions 2, and the remaining rate after correction for water for each peptide among the stored samples was calculated in the same manner as Example 3. Guard column: XSelect CSH C18 by Waters Co., 5 μm, 4.6×20 mm Guard Cartridge Detection wavelength: 220 nm Mobile phase A: 0.1% formic acid aqueous solution Mobile phase B: 0.1% acetonitrile formate solution Measuring time: 20 minutes Measuring sample injection rate: 50 μL Flow rate: 1.0 mL/min Column temperature: 40° C. Sample cooler: 25° C. Mobile phase delivery: The mixing ratio of mobile phase A and mobile phase B was varied as shown in Table 5 for linear concentration gradient control. Peptides 12 to 25, 27 and 28 synthesized in Example 2 were weighed and dissolved in Tris buffer (pH 7.0) to prepare 1.0 mM peptide solutions. Each solution was filtered with a Chromatdisk (product of Merck Millipore, Millex-GV, 0.22 μm). The filtrate was diluted to 100 μM with Tris buffer (pH 7.0) and dispensed into a tube (Protein LoBind Tube by Eppendorf Co.). The prepared peptide solutions were incubated for one week or 2 weeks in a 60° C. thermostatic bath to obtain stored samples. A simultaneously prepared sample among the peptide solutions that was not stored was used as a standard sample (initial sample). The standard sample and the stored samples were stored at −30° C. until sample analysis. The remaining rate after correction for water for each peptide among the stored samples was calculated in the same manner as Example 4, and the results are shown in Table 7. Peptides 29 to 34 synthesized in Example 2 were weighed and dissolved in Tris buffer (pH 7.0) to prepare 1.0 mM peptide solutions. Each solution was filtered with a Chromatdisk (product of Merck Millipore, Millex-GV, 0.22 μm). The filtrate was diluted to 100 μM with Tris buffer (pH 7.0) and dispensed into a tube (Protein LoBind Tube by Eppendorf Co.). The prepared peptide solutions were incubated for 2 weeks in a 60° C. thermostatic bath to obtain stored samples. A simultaneously prepared sample among the peptide solutions that was not stored was used as a standard sample (initial sample). The standard sample and the stored samples were stored at −30° C. until sample analysis. The remaining rate after correction for water for each peptide among the stored samples was calculated in the same manner as Example 4, and the results are shown in Table 7-2. Peptide 26 synthesized in Example 2 was weighed and dissolved in Tris buffer (pH 7.0) to prepare a 1.0 mM peptide solution. The solution was filtered with a Chromatdisk (product of Merck Millipore, Millex-GV, 0.22 μm). The filtrate was diluted to 100 μM with Tris buffer (pH 7.0) and dispensed into a tube (Protein LoBind Tube by Eppendorf Co.). The prepared peptide solution was incubated for one week or 2 weeks in a 60° C. thermostatic bath to obtain stored samples. A simultaneously prepared sample among the peptide solutions that was not stored was used as a standard sample (initial sample). The standard sample and the stored sample were stored at −30° C. until sample analysis. […]

remaining rate after correction for water, 60° C., 2 weeks preservation (Table 7-2) [%]	SMILES	also measured
–	CC[C@H](C)[C@H](NC(=O)CNC(=O)[C@H](Cc1nnn[nH]1)NC(=O)[C@H](CO)NC(=O)[C@H](Cc1c[nH]cn1)NC(C)=O)C(=O)N[C@@H](Cc1ccccc1)C(=O)N[C@H](C(=O)N[C@@H](Cc1nnn[nH]1)C(=O)N[C@@H](C)C(=O)N[C@@H](Cc1ccc(O)cc1)C(=O)N[C@@H](CO)C(=O)N[C@@H](CCCNC(=N)N)C(=O)N[C@@H](Cc1ccc(O)cc1)C(=O)N[C@@H](CCCNC(=N)N)C(=O)N[C@@H](CCCCN)C(=O)N[C@@H](C)C(=O)N[C@@H](CC(C)C)C(=O)N[C@@H](C)C(=O)N[C@H](C(=O)N[C@@H](CCCCN)C(=O)N[C@@H](CCCCN)C(=O)N[C@@H](Cc1ccc(O)cc1)C(=O)N[C@@H](CC(C)C)C(=O)N[C@@H](C)C(=O)N[C@@H](C)C(=O)N[C@H](C(=O)N[C@@H](CC(C)C)C(N)=O)C(C)C)C(C)C)[C@@H](C)O [Peptide 26] (Ac-HS[Ala(1H-tetrazol-5-yl)]GIFT[Ala(1H-tetrazol-5-yl)]AYSRYRKALAVKKYLAAVL-NH2)	remaining rate after correction for water, 60° C., 1 week preservation (Table 10, HPLC conditions 3): 98.0%; remaining rate after correction for water, 60° C., 2 weeks preservation (Table 10, HPLC conditions 3): 94.8%
–	CC[C@H](C)[C@H](NC(=O)CNC(=O)[C@H](Cc1nnn[nH]1)NC(=O)[C@H](CO)NC(=O)[C@H](Cc1c[nH]cn1)NC(C)=O)C(=O)N[C@@H](Cc1ccccc1)C(=O)N[C@H](C(=O)N[C@@H](Cc1nnn[nH]1)C(=O)N[C@@H](CO)C(=O)N[C@@H](Cc1ccc(O)cc1)C(=O)N[C@@H](CO)C(=O)N[C@@H](CCCNC(=N)N)C(=O)N[C@@H](Cc1ccc(O)cc1)C(=O)N[C@@H](CCCNC(=N)N)C(=O)N[C@@H](CCCCN)C(=O)N[C@@H](C)C(=O)N[C@@H](C)C(=O)N[C@@H](C)C(=O)N[C@H](C(=O)N[C@@H](CCCCN)C(=O)N[C@@H](CCCCN)C(=O)N[C@@H](Cc1ccc(O)cc1)C(=O)N[C@@H](CC(C)C)C(=O)N[C@@H](C)C(=O)N[C@@H](C)C(=O)N[C@H](C(=O)N[C@@H](CC(C)C)C(N)=O)C(C)C)C(C)C)[C@@H](C)O [Peptide 28] (Ac-HS[Ala(1H-tetrazol-5-yl)]GIFT[Ala(1H-tetrazol-5-yl)]SYSRYRKAAAVKKYLAAVL-NH2)	remaining rate after correction for water, 60° C., 1 week preservation (Table 7): 94.6%; remaining rate after correction for water, 60° C., 2 weeks preservation (Table 7): 90.5%
91.9	CC[C@H](C)[C@H](NC(=O)CNC(=O)[C@H](Cc1nnn[nH]1)NC(=O)[C@H](CO)NC(=O)[C@H](Cc1c[nH]cn1)NS(C)(=O)=O)C(=O)N[C@@H](Cc1ccccc1)C(=O)N[C@H](C(=O)N[C@@H](Cc1nnn[nH]1)C(=O)N[C@@H](C)C(=O)N[C@@H](Cc1ccc(O)cc1)C(=O)N[C@@H](CO)C(=O)N[C@@H](CCCNC(=N)N)C(=O)N[C@@H](Cc1ccc(O)cc1)C(=O)N[C@@H](CCCNC(=N)N)C(=O)N[C@@H](CCCCN)C(=O)N[C@@H](CCC(N)=O)C(=O)N[C@@H](CC(C)C)C(=O)N[C@@H](C)C(=O)N[C@H](C(=O)N[C@@H](CCCCN)C(=O)N[C@@H](CCCCN)C(=O)N[C@@H](Cc1ccc(O)cc1)C(=O)N[C@@H](CC(C)C)C(=O)N[C@@H](C)C(=O)N[C@@H](C)C(=O)N[C@H](C(=O)N[C@@H](CC(C)C)C(N)=O)C(C)C)C(C)C)[C@@H](C)O [Peptide 29] (Ms-HS[Ala(1H-tetrazol-5-yl)]GIFT[Ala(1H-tetrazol-5-yl)]AYSRYRKQLAVKKYLAAVL-NH2)	–
92.2	CC[C@H](C)[C@H](NC(=O)[C@H](C)NC(=O)[C@H](Cc1nnn[nH]1)NC(=O)[C@H](CO)NC(=O)[C@H](Cc1c[nH]cn1)NS(C)(=O)=O)C(=O)N[C@@H](Cc1ccccc1)C(=O)N[C@H](C(=O)N[C@@H](Cc1nnn[nH]1)C(=O)N[C@@H](CO)C(=O)N[C@@H](Cc1ccc(O)cc1)C(=O)N[C@@H](CO)C(=O)N[C@@H](CCCNC(=N)N)C(=O)N[C@@H](Cc1ccc(O)cc1)C(=O)N[C@@H](CCCNC(=N)N)C(=O)N[C@@H](CCCCN)C(=O)N[C@@H](CCC(N)=O)C(=O)N[C@@H](CC(C)C)C(=O)N[C@@H](C)C(=O)N[C@H](C(=O)N[C@@H](CCCCN)C(=O)N[C@@H](CCCCN)C(=O)N[C@@H](Cc1ccc(O)cc1)C(=O)N[C@@H](CC(C)C)C(=O)N[C@@H](C)C(=O)N[C@@H](C)C(=O)N[C@H](C(=O)N[C@@H](CC(C)C)C(N)=O)C(C)C)C(C)C)[C@@H](C)O [Peptide 30] (Ms-HS[Ala(1H-tetrazol-5-yl)]AIFT[Ala(1H-tetrazol-5-yl)]SYSRYRKQLAVKKYLAAVL-NH2)	–
88.7	CC[C@H](C)[C@H](NC(=O)[C@H](C)NC(=O)[C@H](Cc1nnn[nH]1)NC(=O)[C@H](CO)NC(=O)[C@H](Cc1c[nH]cn1)NC(C)=O)C(=O)N[C@@H](Cc1ccccc1)C(=O)N[C@H](C(=O)N[C@@H](Cc1nnn[nH]1)C(=O)N[C@@H](CO)C(=O)N[C@@H](Cc1ccc(O)cc1)C(=O)N[C@@H](CO)C(=O)N[C@@H](CCCNC(=N)N)C(=O)N[C@@H](Cc1ccc(O)cc1)C(=O)N[C@@H](CCCNC(=N)N)C(=O)N[C@@H](CCCCN)C(=O)N[C@@H](CCC(N)=O)C(=O)N[C@@H](C)C(=O)N[C@@H](C)C(=O)N[C@H](C(=O)N[C@@H](CCCCN)C(=O)N[C@@H](CCCCN)C(=O)N[C@@H](Cc1ccc(O)cc1)C(=O)N[C@@H](CC(C)C)C(=O)N[C@@H](C)C(=O)N[C@@H](C)C(=O)N[C@H](C(=O)N[C@@H](CC(C)C)C(N)=O)C(C)C)C(C)C)[C@@H](C)O [Peptide 32] (Ac-HS[Ala(1H-tetrazol-5-yl)]AIFT[Ala(1H-tetrazol-5-yl)]SYSRYRKQAAVKKYLAAVL-NH2)	–
85.3	CC[C@H](C)[C@H](NC(=O)[C@H](C)NC(=O)[C@H](Cc1nnn[nH]1)NC(=O)[C@H](C)NC(=O)[C@H](Cc1c[nH]cn1)NC(C)=O)C(=O)N[C@@H](Cc1ccccc1)C(=O)N[C@H](C(=O)N[C@@H](Cc1nnn[nH]1)C(=O)N[C@@H](CO)C(=O)N[C@@H](Cc1ccc(O)cc1)C(=O)N[C@@H](CO)C(=O)N[C@@H](CCCNC(=N)N)C(=O)N[C@@H](Cc1ccc(O)cc1)C(=O)N[C@@H](CCCNC(=N)N)C(=O)N[C@@H](CCCCN)C(=O)N[C@@H](CCC(N)=O)C(=O)N[C@@H](C)C(=O)N[C@@H](C)C(=O)N[C@H](C(=O)N[C@@H](CCCCN)C(=O)N[C@@H](CCCCN)C(=O)N[C@@H](Cc1ccc(O)cc1)C(=O)N[C@@H](CC(C)C)C(=O)N[C@@H](C)C(=O)N[C@@H](C)C(=O)N[C@H](C(=O)N[C@@H](CC(C)C)C(N)=O)C(C)C)C(C)C)[C@@H](C)O [Peptide 33] (Ac-HA[Ala(1H-tetrazol-5-yl)]AIFT[Ala(1H-tetrazol-5-yl)]SYSRYRKQAAVKKYLAAVL-NH2)	–
96.9	CC[C@H](C)[C@H](NC(=O)[C@H](C)NC(=O)[C@H](Cc1nnn[nH]1)NC(=O)[C@H](CO)NC(=O)[C@H](Cc1c[nH]cn1)NC(C)=O)C(=O)N[C@@H](Cc1ccccc1)C(=O)N[C@H](C(=O)N[C@@H](Cc1nnn[nH]1)C(=O)N[C@@H](CO)C(=O)N[C@@H](Cc1ccc(O)cc1)C(=O)N[C@@H](CO)C(=O)N[C@@H](CCCNC(=N)N)C(=O)N[C@@H](Cc1ccc(O)cc1)C(=O)N[C@@H](CCCNC(=N)N)C(=O)N[C@@H](CCCCN)C(=O)N[C@@H](C)C(=O)N[C@@H](C)C(=O)N[C@@H](C)C(=O)N[C@H](C(=O)N[C@@H](CCCCN)C(=O)N[C@@H](CCCCN)C(=O)N[C@@H](Cc1ccc(O)cc1)C(=O)N[C@@H](CC(C)C)C(=O)N[C@@H](C)C(=O)N[C@@H](C)C(=O)N[C@H](C(=O)N[C@@H](CC(C)C)C(N)=O)C(C)C)C(C)C)[C@@H](C)O [Peptide 34] (Ac-HS[Ala(1H-tetrazol-5-yl)]AIFT[Ala(1H-tetrazol-5-yl)]SYSRYRKAAAVKKYLAAVL-NH2)	–
